The values that follow come from US12054509B2, “Antimicrobial compounds, compositions, and uses thereof” (Lakewood Amedex, Inc., priority 2017, dated 2024).

The test system of series [1] is Escherichia coli (strain CFT073, TPPS 1041). The experiment in a line: Urinary tract infection model in BALB/c mice, initial efficacy (Example 10). The series is classed as in vivo. The conditions noted are these: 50 mg/kg transurethral at 24 hr, 60 minutes post-treatment. The text has this: Female BALB/c mice (20-22 g) ordered from Envigo are acclimated to housing conditions and handled in accordance with Animal Use Protocol (AUP) number TP-08. Animals are fed irradiated Teklad Global 29 18 Rodent Diet and water ad libitum. Mice are housed 6/cage in static cages with irradiated ⅛″ Teklad corn cobbedding 7902 inside bioBubble® clean rooms that provide H.E.P.A filtered air into the bubble environment at 100 complete air changes per hour. The environment is controlled to a temperature range of 74°±4° F. and a humidity range of 30-70%. All procedures carried out in this experiment are conducted in compliance with the laws, regulations, and guidelines of the National Institutes of Health and with the approval of the TransPharm Preclinical Solutions Animal Care and Use Committee.
A clinical isolate of Escherichia coli (strain CFT073, TPPS 1041) are procured from the University of Michigan.
The organism is grown overnight at 37° C. in ambient atmosphere on trypticase soy agar plates supplemented with 5% sheep blood cells. The culture is aseptically swabbed and transferred to tubes of trypticase soy broth. The optical density is determined at 600 nm. The culture is diluted to provide an inoculum of approximately 7.5 log10 CFU per mouse in a volume of 30 μL. Instillation of the bacterial challenge constituted time 0 hour for the study. Inoculum counts are estimated before inoculation by optical density and confirmed after inoculation by dilution and back counts.
One hour prior to bacterial challenge, water is removed from animal cages. […]
The primary endpoint used to assess progress of the infection is mean bacterial burden per gram of urinary bladder tissue. […] Colony forming units (CFU) are enumerated and the total bacterial burden per gram of urinary bladder tissue homogenate is calculated.
The geometric mean CFU, along with standard error of the mean (SEM), are calculated using Microsoft Excel and bar charts are prepared for the data using GraphPad Prism v. […]

The nature of series [2]: pH of 20 mg/mL (2%) aqueous solution. The series is classed as physicochemical. The conditions noted are these: 20 mg/mL in DI water. The method, then:
pH studies are conducted to show the pH of Nu-8 compared to Bisphosphocin® compounds Nu-2, Nu-4, and Nu-5. 20 mg/mL Nu-2 solution is prepared by diluting 2 mL of 250 mg/mL Nu-2 solution with 23 mL DI water. 20 mg/mL Nu-4 and Nu-5 solutions are prepared in the same way. 401.65 mg Nu-8 is weighed in a 5 mL volumetric flask and diluted with DI water to volume. 20 mg/mL Nu-8 solution is prepared by diluting 5 mL of 80.3 mg/mL Nu-8 solution with 15 mL DI water. The pH values of 4 Nu-2, Nu-4, Nu-5, and Nu-8 at 20 mg/mL are measured with a calibrated pH meter. Also shown in TABLE 2 is a summary of other physical properties of the compound of Formula (I) and reference compounds Nu-2, Nu-4, and Nu-5.

Series [3] can be described thus: Pow (partition coefficient). The series is classed as physicochemical.
A further series deals with E. coli ATCC 25922. The experiment in a line: Bacterial cytological profiling (Example 6), E. coli.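 As to cell wall deformations: tested at 1 0.5 and 0.25 times MIC.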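 As to effect on cell envelope: tested at 1 0.5 and 0.25 times MIC.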 The series is classed as cell-based. To be noted: for effect on cell envelope: BCP; for cell membrane permeability: buffered pH 4 or unbuffered LB; for DNA condensation: higher treatment concentrations, buffered pH 4; for cell wall deformations: unbuffered LB. The method, then:
(§1) This bacterial cytological profiling (BCP) study uses methods and materials described previously by Nonejuie, P., Burkart, M., Poglianoa, K., Pogiano, J. (2013). Bacterial cytological profiling rapidly identifies the cellular pathways targeted by antibacterial molecules. Proc. Natl. Acad. Sci. U.S.A. 110(40):16169-16174. doi: 10.1073/pnas.1311066110.
(§2) Wild type strains of E. coli ATCC 25922 or P. aeruginosa K2732 are grown in rich media (unbuffered 2× Lysogeny broth [LB]) at 30 C to an OD600˜0.4. These cultures are then split and each sample treated with the appropriate concentration of Nu-8 in unbuffered or buffered LB (final mixture OD600˜0.1). Cells exposed without Nu-8 are buffered to pH 4 with phosphoric acid.
(§3) The BCP is performed in LB media buffered to pH 4. The minimum inhibitory concentration (MIC) is measured for Nu-3, Nu-4, Nu-5, and Nu-8 against each bacterial strain. As one of ordinary skill in the art understands, minimum inhibitory concentrations are the lowest concentration of an antimicrobial that will inhibit the visible growth of a microorganism after overnight incubation. […] Cellular viability is assayed at three time points (5 minutes and 4 and 24 h following the onset of treatment).
(§4) For imaging E. coli, treated cells are stained with 1 μg/Ml FM4-64, 2 μg/mL DAPI, and 0.5 μM SYTOXGreen (Molecular Probes/Invitrogen). P. aeruginosa samples are stained 0.5 μM SYTOX Green, 28 μg/mL DAPI, and 4.5 μg/mL FM 4-64. Cells are transferred to an agarose pad (20% LB, 1% agarose) for imaging as described in Pogliano, J., Osborne, N., Sharp, M. D., Abanes-De Mello, A., Perez, A., Sun, Y.-L. and Pogliano, K. (1999), A vital stain for studying membrane dynamics in bacteria: a novel mechanism controlling septation during Bacillus subtilis sporulation. Molecular Microbiology, 31: 1149-1159. doi:10.1046/j.1365-2958.1999.01255.x.

The test system of another series is P. aeruginosa K2732. The experiment in a line: Bacterial cytological profiling (Example 6), P. aeruginosa.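 As to effect on cell envelope: tested at 1 0.5 and 0.25 times MIC.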 The series is classed as cell-based. The conditions noted are these: for effect on cell envelope: BCP; for cell membrane permeability: buffered pH 4 or unbuffered LB. On the procedure:
as §1, §2, §3, §4

Consider gentamicin [reference compound], for which, in series [1], the “average bladder CFU burden” value is 6.1 log10 CFU.

As for `CCCCOP(=O)(O)OCCOCCOP(=O)(O)OCCCC` [Nu-5], in series [2], the “pH (2% solution)” value worked out at 0.93. This molecule also returned a Pow in series [3] of 0.0480. In the series with E. coli ATCC 25922, the “effect on cell envelope” value is reported as “affect the cell envelope”, the cell membrane permeability result is listed as “increase cell membrane permeability”, the DNA condensation result is reported as “causes DNA condensation” and the cell wall deformations result is listed as “cause cell wall deformations”. Moreover, in the series on P. aeruginosa K2732, the “effect on cell envelope” value is reported as “affect the cell envelope” and the cell membrane permeability result is listed as “increase cell membrane permeability”.

For `COC1[C@@H](OP(=O)(O)OCCCCO)[C@@H](COP(=O)(O)OCCCCO)O[C@H]1n1ccc(=O)[nH]c1=O` (stereo partly shown) [Nu-2], the “pH (2% solution)” value in series [2] is 0.99. The same molecule displayed a Pow in series [3] of 0.0407.

Take `CCCCOP(=O)(O)OC[C@H]1O[C@@H](n2cc(C)c(=O)[nH]c2=O)C[C@H]1OP(=O)(O)OCCCC` [Nu-4]: in series [2], the “pH (2% solution)” value is on record as 0.94. The Pow in series [3] was 0.0592. In the series with E. coli ATCC 25922, the “effect on cell envelope” value was “affect the cell envelope”, the cell membrane permeability result is reported as “increase cell membrane permeability”, the DNA condensation result is recorded as “causes DNA condensation” and the cell wall deformations entry is “cause cell wall deformations”. Further, in the series on P. aeruginosa K2732, the “effect on cell envelope” value is “affect the cell envelope” and the cell membrane permeability result is “increase cell membrane permeability”.
